Article PMC9108871 (Frontiers in Plant Science, 2022)

Tests used:
[1] = test system: ALDH (aldehyde dehydrogenase; ALDH2); assay: ALDH activity kit (Abcam), absorbance […] nm (NADH standard), Lineweaver-Burk; assay type: biochemical, Citrus sinensis; conditions: no Effector 3; incubation 1 h; varied substrate acetaldehyde (Methods)
[2] = test system: GH17 (Glycosyl Hydrolase family 17); assay: beta-glucosidase kit (MAK129), absorbance […] nm, Lineweaver-Burk; assay type: biochemical, Citrus sinensis; conditions: K-phosphate 100 mM, pH 6.5, 37°C, 20 min; no LasP235; substrate taken from Methods

For `CC=O` [acetaldehyde], the Km [1] was 2130 µM.
`O=[N+]([O-])c1ccc(O[C@@H]2O[C@H](CO)[C@@H](O)[C@H](O)[C@H]2O)cc1` [p-nitrophenyl-β-D-glucopyranoside] gave a Km [2] of 42 µM.
